This is an account of results in ChEMBL document CHEMBL4842357, “Discovery of Novel Apigenin-Piperazine Hybrids as Potent and Selective Poly (ADP-Ribose) Polymerase-1 (PARP-1) Inhibitors for the Treatment of Cancer” (J Med Chem, 2021).

The target in experiment [1] is Poly [ADP-ribose] polymerase 1 (Homo sapiens, UniProt P09874). Nature of the experiment: Inhibition of recombinant human full-length PARP-1 using biotinylated substrate.
The target in experiment [2] is Poly [ADP-ribose] polymerase 2 (Homo sapiens, UniProt Q9UGN5). The experiment in a line: Inhibition of recombinant human full-length PARP-2 using biotinylated substrate.
The next experiment is filed under the species Homo sapiens. The experiment in a line: Selectivity index, ratio of IC50 for inhibition of recombinant human full-length PARP-2 to IC50 for inhibition of recombinant human full-length PARP-1.

Chain of Poly [ADP-ribose] polymerase 2 (Q9UGN5 whole entry): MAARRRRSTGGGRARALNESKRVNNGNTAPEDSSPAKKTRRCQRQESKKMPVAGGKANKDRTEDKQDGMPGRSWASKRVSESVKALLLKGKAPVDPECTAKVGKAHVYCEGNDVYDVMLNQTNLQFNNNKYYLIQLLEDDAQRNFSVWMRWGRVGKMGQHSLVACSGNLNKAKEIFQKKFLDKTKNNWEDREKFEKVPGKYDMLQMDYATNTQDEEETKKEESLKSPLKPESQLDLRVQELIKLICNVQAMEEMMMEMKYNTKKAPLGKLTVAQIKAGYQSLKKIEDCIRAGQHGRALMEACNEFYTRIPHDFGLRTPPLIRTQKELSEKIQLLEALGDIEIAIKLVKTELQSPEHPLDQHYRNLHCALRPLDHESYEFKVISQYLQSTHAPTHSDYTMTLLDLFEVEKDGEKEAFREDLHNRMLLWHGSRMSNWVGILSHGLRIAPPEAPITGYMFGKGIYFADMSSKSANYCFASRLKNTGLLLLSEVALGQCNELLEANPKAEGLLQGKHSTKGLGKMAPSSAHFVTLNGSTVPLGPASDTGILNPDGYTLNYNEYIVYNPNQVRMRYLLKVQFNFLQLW
Chain of Poly [ADP-ribose] polymerase 1 (P09874 whole entry): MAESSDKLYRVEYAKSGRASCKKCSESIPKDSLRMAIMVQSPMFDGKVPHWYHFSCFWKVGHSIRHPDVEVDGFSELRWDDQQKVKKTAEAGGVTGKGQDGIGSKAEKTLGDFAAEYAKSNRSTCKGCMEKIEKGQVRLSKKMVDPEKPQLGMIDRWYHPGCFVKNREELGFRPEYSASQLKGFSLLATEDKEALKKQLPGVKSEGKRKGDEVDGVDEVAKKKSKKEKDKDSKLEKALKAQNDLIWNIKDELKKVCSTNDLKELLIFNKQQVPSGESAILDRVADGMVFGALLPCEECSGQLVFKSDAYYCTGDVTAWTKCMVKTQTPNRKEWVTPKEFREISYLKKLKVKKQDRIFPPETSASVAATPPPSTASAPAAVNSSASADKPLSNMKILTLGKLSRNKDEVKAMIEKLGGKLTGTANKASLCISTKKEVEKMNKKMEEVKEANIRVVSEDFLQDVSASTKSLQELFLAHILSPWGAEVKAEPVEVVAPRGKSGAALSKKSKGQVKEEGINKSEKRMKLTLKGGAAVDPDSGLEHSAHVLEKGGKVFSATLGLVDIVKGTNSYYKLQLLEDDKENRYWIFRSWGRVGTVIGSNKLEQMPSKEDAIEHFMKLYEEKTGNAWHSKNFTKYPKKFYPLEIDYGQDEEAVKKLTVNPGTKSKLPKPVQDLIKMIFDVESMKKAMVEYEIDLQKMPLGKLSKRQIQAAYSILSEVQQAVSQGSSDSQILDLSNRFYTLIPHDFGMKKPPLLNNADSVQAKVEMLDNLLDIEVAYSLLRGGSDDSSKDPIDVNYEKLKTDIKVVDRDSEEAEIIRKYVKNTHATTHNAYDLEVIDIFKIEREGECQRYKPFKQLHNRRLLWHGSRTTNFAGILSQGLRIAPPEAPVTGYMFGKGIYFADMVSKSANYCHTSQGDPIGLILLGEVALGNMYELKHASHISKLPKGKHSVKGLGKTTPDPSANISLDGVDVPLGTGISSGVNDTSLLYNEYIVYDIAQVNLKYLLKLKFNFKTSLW

The term IC50 denotes the midpoint of a concentration-inhibition curve. For `O=C(c1ccncc1)N1CCN(Cc2c(O)cc(O)c3c(=O)cc(-c4ccc(O)cc4)oc23)CC1`, the half-inhibitory concentration (IC50) is 27.6 nM in experiment [1] and 1400 nM in experiment [2]. In addition, in the experiment filed under Homo sapiens, the Ratio IC50 came out at 50.7.

In the case of `O=C(C1CC1)N1CCN(Cc2c(O)cc(O)c3c(=O)cc(-c4ccc(O)cc4)oc23)CC1`, the IC50 in experiment [1] turned out to be 37.5 nM; in experiment [2], 2500 nM. Besides, in the experiment filed under Homo sapiens, the Ratio IC50 is 66.7.

On to `O=c1cc(-c2ccc(O)cc2)oc2c(CN3CCN(c4ccccc4)CC3)c(O)cc(O)c12`, for which the IC50 in experiment [1] amounted to 35.6 nM; in experiment [2], 2100 nM. In the experiment listed under Homo sapiens, the Ratio IC50 turned out to be 59.

Consider `CC(C)C(=O)N1CCN(Cc2c(O)cc(O)c3c(=O)cc(-c4ccc(O)cc4)oc23)CC1`, for which the IC50 in experiment [1] turned out to be 37.9 nM; in experiment [2] it was 2100 nM. In the experiment filed under Homo sapiens, the Ratio IC50 was 55.4.

For the compound `O=c1cc(-c2ccc(O)cc2)oc2c(CN3CCN(Cc4ccsc4)CC3)c(O)cc(O)c12`, the IC50 in experiment [1] was determined as 49.8 nM; in experiment [2], 2800 nM. In the experiment listed under Homo sapiens, the Ratio IC50 is 56.2.

In the case of `O=c1cc(-c2ccc(O)cc2)oc2c(CN3CCC(CO)CC3)c(O)cc(O)c12`, the IC50 in experiment [1] amounted to 80.2 nM; in experiment [2], 4800 nM. The Ratio IC50 in the experiment filed under Homo sapiens turned out to be 59.8.

Take `Cc1ccc(-c2cc(=O)c3c(O)cc(O)c(-c4cccc(-c5cc(=O)c6c(O)cc(O)cc6o5)c4)c3o2)cc1C`: the IC50 turned out to be 250 nM in experiment [1] and 12700 nM in experiment [2]. Besides, the Ratio IC50 in the experiment listed under Homo sapiens is 50.9.

`O=C(OCc1ccccc1)N1CCN(Cc2c(O)cc(O)c3c(=O)cc(-c4ccc(O)cc4)oc23)CC1`: the results for the 50% inhibitory concentration (IC50) in experiment [1] and in experiment [2] were 43.8 nM and 2100 nM, respectively. Besides, the Ratio IC50 in the experiment listed under Homo sapiens was 47.9.

Turning to `O=c1cc(-c2cccc(-c3c(O)cc(O)c4c(=O)cc(-c5ccco5)oc34)c2)oc2cc(O)cc(O)c12`, the half-maximal inhibitory concentration (IC50) in experiment [1] worked out at 386 nM; in experiment [2], 14700 nM. Besides, the Ratio IC50 in the experiment listed under Homo sapiens came to 38.

Consider `O=C(c1ccccn1)N1CCN(Cc2c(O)cc(O)c3c(=O)cc(-c4ccc(O)cc4)oc23)CC1`, for which the half-inhibitory concentration (IC50) turned out to be 21.8 nM in experiment [1] and 1300 nM in experiment [2]. Moreover, the Ratio IC50 in the experiment listed under Homo sapiens was 59.6.

For the compound `Cc1ccc(CN2CCN(Cc3c(O)cc(O)c4c(=O)cc(-c5ccc(O)cc5)oc34)CC2)cc1`, the IC50 in experiment [1] is 30.6 nM; in experiment [2] it was 1800 nM. Moreover, the Ratio IC50 in the experiment filed under Homo sapiens amounted to 58.8.

On to `O=C(c1ccccc1)N1CCN(Cc2c(O)cc(O)c3c(=O)cc(-c4ccc(O)cc4)oc23)CC1`, for which the IC50 in experiment [1] worked out at 50.7 nM; in experiment [2] it was 2900 nM. In addition, in the experiment filed under Homo sapiens, the Ratio IC50 turned out to be 57.2.

Take `O=c1cc(-c2ccc(O)cc2)oc2c(CN3CCC(c4ccccc4)CC3)c(O)cc(O)c12`: the IC50 in experiment [1] was found to be 71.9 nM; in experiment [2], 4000 nM. In the experiment filed under Homo sapiens, the Ratio IC50 came out at 55.6.

Take `O=c1cc(-c2ccc(O)cc2)oc2c(CN3CCN(Cc4ccc(F)cc4)CC3)c(O)cc(O)c12`: the half-inhibitory concentration (IC50) turned out to be 34.5 nM in experiment [1] and 2000 nM in experiment [2]. In the experiment filed under Homo sapiens, the Ratio IC50 is 58.

Take `O=c1cc(-c2cccc(-c3c(O)cc(O)c4c(=O)cc(-c5ccc(O)cc5)oc34)c2)oc2cc(O)cc(O)c12`: the values for the half-maximal inhibitory concentration (IC50) in experiment [1] and in experiment [2] were 196 nM and 10300 nM, respectively. For the same compound, in the experiment filed under Homo sapiens, the Ratio IC50 was found to be 52.5.

Turning to `O=c1cc(-c2cccc(-c3c(O)cc(O)c4c(=O)cc(-c5ccc(C(F)(F)F)cc5)oc34)c2)oc2cc(O)cc(O)c12`, the IC50 in experiment [1] was determined as 502 nM; in experiment [2] it was 26400 nM. The Ratio IC50 in the experiment listed under Homo sapiens turned out to be 52.6.

As for `O=C(C1CCC1)N1CCN(Cc2c(O)cc(O)c3c(=O)cc(-c4ccc(O)cc4)oc23)CC1`, the figures for the IC50 in experiment [1] and in experiment [2] were 45.5 nM and 2600 nM, respectively. Besides, the Ratio IC50 in the experiment listed under Homo sapiens was found to be 57.1.

In the case of `O=c1cc(-c2cccc(-c3c(O)cc(O)c4c(=O)cc(-c5ccc(F)cc5)oc34)c2)oc2cc(O)cc(O)c12`, the figures for the IC50 in experiment [1] and in experiment [2] were 179 nM and 8500 nM, respectively. Moreover, in the experiment filed under Homo sapiens, the Ratio IC50 came out at 47.4.

For `O=c1cc(-c2ccc(O)cc2)oc2c(CN3CCN(c4cncnc4)CC3)c(O)cc(O)c12`, the IC50 worked out at 29.5 nM in experiment [1] and 1800 nM in experiment [2]. The Ratio IC50 in the experiment listed under Homo sapiens was determined as 61.

Take `O=c1cc(-c2ccc(O)cc2)oc2c(CN3CCN(Cc4ccncc4)CC3)c(O)cc(O)c12`: the IC50 worked out at 19.8 nM in experiment [1] and 1100 nM in experiment [2]. For the same compound, in the experiment filed under Homo sapiens, the Ratio IC50 was determined as 55.5.

Take `Cc1ccc(N2CCN(Cc3c(O)cc(O)c4c(=O)cc(-c5ccc(O)cc5)oc34)CC2)cc1`: the IC50 in experiment [1] is 48.5 nM; in experiment [2], 2800 nM. The Ratio IC50 in the experiment filed under Homo sapiens came out at 57.7.

Consider `COC(=O)C1CCN(Cc2c(O)cc(O)c3c(=O)cc(-c4ccc(O)cc4)oc23)CC1`, for which the results for the IC50 in experiment [1] and in experiment [2] were 97.6 nM and 6700 nM, respectively. Besides, in the experiment listed under Homo sapiens, the Ratio IC50 stood at 68.6.

Take `O=c1cc(-c2ccc(O)cc2)oc2c(CN3CCN(CC4CCCO4)CC3)c(O)cc(O)c12` (stereo not given): the half-maximal inhibitory concentration (IC50) in experiment [1] was found to be 40.4 nM; in experiment [2] it was 2500 nM. Also, the Ratio IC50 in the experiment listed under Homo sapiens is 61.9.

As for `O=c1cc(-c2ccc(O)cc2)oc2c(CN3CCN(Cc4ccoc4)CC3)c(O)cc(O)c12`, the concentration for half-maximal inhibition (IC50) was found to be 43.8 nM in experiment [1] and 2600 nM in experiment [2]. The Ratio IC50 in the experiment listed under Homo sapiens was 59.4.

For `CC(=O)N1CCN(Cc2c(O)cc(O)c3c(=O)cc(-c4ccc(O)cc4)oc23)CC1`, the 50% inhibitory concentration (IC50) in experiment [1] amounted to 42.6 nM; in experiment [2], 3000 nM. Moreover, the Ratio IC50 in the experiment filed under Homo sapiens amounted to 70.4.

`O=c1cc(-c2ccc(O)cc2)oc2c(CN3CC=C(c4ccccc4)CC3)c(O)cc(O)c12`: the IC50 in experiment [1] was determined as 139 nM; in experiment [2], 7900 nM. In the experiment listed under Homo sapiens, the Ratio IC50 is 56.6.

Regarding `O=C(C1CCCCC1)N1CCN(Cc2c(O)cc(O)c3c(=O)cc(-c4ccc(O)cc4)oc23)CC1`, the IC50 in experiment [1] is 44.5 nM; in experiment [2] it was 2300 nM. Besides, the Ratio IC50 in the experiment listed under Homo sapiens stood at 51.7.

On to `O=c1cc(-c2ccc(O)cc2)oc2c(CN3CCN(c4ccc(F)cc4)CC3)c(O)cc(O)c12`, for which the IC50 stood at 51.4 nM in experiment [1] and 2900 nM in experiment [2]. Also, the Ratio IC50 in the experiment filed under Homo sapiens is 56.4.

With `CCOC(=O)C1CCN(Cc2c(O)cc(O)c3c(=O)cc(-c4ccc(O)cc4)oc23)CC1`, the concentration for half-maximal inhibition (IC50) was determined as 92.8 nM in experiment [1] and 5600 nM in experiment [2]. Further, the Ratio IC50 in the experiment filed under Homo sapiens turned out to be 60.3.

Take `O=c1cc(-c2ccc(O)cc2)oc2c(CN3CCN(c4ccc(Cl)cc4)CC3)c(O)cc(O)c12`: the IC50 in experiment [1] worked out at 60.8 nM; in experiment [2] it was 3700 nM. For the same compound, the Ratio IC50 in the experiment filed under Homo sapiens came out at 60.8.

For `O=c1cc(-c2ccc(O)cc2)oc2c(CN3CCN(CC4CC4)CC3)c(O)cc(O)c12`, the IC50 in experiment [1] amounted to 54.6 nM; in experiment [2], 2900 nM. In the experiment listed under Homo sapiens, the Ratio IC50 was found to be 53.1.

Consider `COc1ccc(C(=O)N2CCN(Cc3c(O)cc(O)c4c(=O)cc(-c5ccc(O)cc5)oc34)CC2)cc1`, for which the IC50 in experiment [1] was 43.4 nM; in experiment [2], 2500 nM. Moreover, the Ratio IC50 in the experiment filed under Homo sapiens came to 57.6.

As for `O=C(c1cccnc1)N1CCN(Cc2c(O)cc(O)c3c(=O)cc(-c4ccc(O)cc4)oc23)CC1`, the IC50 in experiment [1] is 26.2 nM; in experiment [2], 1500 nM. In addition, in the experiment listed under Homo sapiens, the Ratio IC50 is 57.2.

Regarding `O=c1cc(-c2cccc(-c3c(O)cc(O)c4c(=O)cc(-c5cccs5)oc34)c2)oc2cc(O)cc(O)c12`, the figures for the half-inhibitory concentration (IC50) in experiment [1] and in experiment [2] were 202 nM and 11100 nM, respectively. Further, the Ratio IC50 in the experiment listed under Homo sapiens was found to be 55.

Consider `O=c1cc(-c2ccc(O)cc2)oc2c(CN3CCN(c4ccc(O)cc4)CC3)c(O)cc(O)c12`, for which the IC50 in experiment [1] is 39.7 nM; in experiment [2], 2900 nM. The Ratio IC50 in the experiment filed under Homo sapiens turned out to be 73.
